Experiment [1] relates to RAW 264. In words: Inhibition of RANKL-induced osteoclastogenesis in mouse RAW 264 cells at 1 nM […] by TRAP staining based assay. In kind it is functional, cell-based.
Experiment [2] in a line: Inhibition of RANKL-induced osteoclastogenesis in mouse RAW 264 cells at 20 uM […] by TRAP staining based assay relative to control. Particulars: RAW264.7. Type of experiment: functional.
The subject of experiment [3] is RAW 264. In words: Cytotoxicity against mouse RAW 264 cells assessed as reduction in cell viability at upto 160 uM by MTT assay. Type of experiment: functional, cell-based.

Active and inactive are the calls of the source. No cut-off for these calls is given here.

On to `CC1=C(/C=C/C(C)=C/C=C/C(C)=C/C(=O)O)C(C)(C)CCC1`, for which, in experiment [1], the inhibition entry was “Active”.

In experiment [2], `C/C=C/C=C/C(=O)O[C@H]1CC/C=C/[C@H](O)[C@H](O)[C@@H](CCC)OC1=O` [PINOLIDOXIN] displayed an inhibition at 20 µM of 57%. Moreover, in experiment [3], the result was inactive.

The term inhibition denotes the percentage by which the read-out fell short of the control.

The record behind these values is ChEMBL document CHEMBL6071173, “Machine Learning Accelerates Screening of Osteoclast Differentiation Inhibitors from Natural Products” (2024).
